Laboratory results published in US12691108B2, “Methods for treating vascular malformations” (Deciphera Pharmaceuticals, LLC, priority 2019, dated 2026).

What was measured:
[1] = tested on: STAT1; assay: Mutant TIE2-transfected HUVEC Western blot assay: STAT1 phosphorylation downstream of TIE2; assay type: cell-based, human; conditions: 100 nM, 4 hours, HUVECs with WT TIE2 and TIE2 mutants, presence or absence of ANGPT1 stimulation
Protocol: (§1) HUVECs used for in vitro work were kindly provided by Dr. Lauri Eklund (Oulu, Finland). Briefly, cells were grown in endothelial cell growth media (Tebu-Bio, Boechout, Belgium) containing 10% fetal calf serum (Sigma-Aldrich, Diegem, Belgium) at 37 degrees Celsius, 5% CO2, and 95% humidity. Cells were allowed to expand until reaching 90-95% confluence at which point they were subcultured or harvested for assay use.
(§2) HUVEC cells (2.5×10^5 cells/well) stably expressing WT or TIE2 mutants R849W, L914F, R1099*, Y897C/R915C, Y897F/F915L, or T1105N/T1106P were added to a 6-well plate coated with attachment factor solution (Tebu-Bio, Boechout, Belgium) in 2 mL of endothelial cell growth media (Tebu-Bio, Boechout, Belgium) containing 10% fetal calf serum (Sigma-Aldrich, Diegem, Belgium). Cells were subsequently incubated overnight at 37 degrees Celsius, 5% CO2, and 95% humidity. The next day test compound or DMSO was added to the wells (0.068% final DMSO concentration). The plates were then incubated for 4 hours at 37 degrees Celsius, 5% CO2, and 95% humidity. Next, cells were stimulated with 1 μg/mL ANGPT1 for 15 minutes. Cells were lysed and pTIE2, TIE2, b-actin, pAKT (S473), pAKT (T308), AKT, pSTAT1, and STAT1 were detected by Western blot.

[2] = tested on: HUVEC cells expressing mutant TIE2-L914F (VM lesions in matrigel plugs); assay: Venous malformation mouse model, previously established VM lesions, diet from post-implant day 7; assay type: in vivo, athymic nude male mice
Protocol: (§3) For the in vivo model, fresh HUVEC transfectants were made using lentiviral infection. […]. Subsequently, 25,000 HUVECs/well (LGC Standards sarl, France) were grown on a 24-well plate for 24 hrs, infected with 500 μl of the lentivirus-TIE2-L914F mix, then cultured for another 48 hrs, collected, then frozen.
To evaluate the effect of the compound on vascular malformation (VM) lesion development in vivo, HUVEC cells (2.5×10^6) expressing mutant TIE2-L914F were cultured, detached, then resuspended in 200 μL matrigel (Corning). The mixture was injected subcutaneously into the dorsal back of athymic nude male mice, aged 5-7 weeks (Charles River). […] At post-implant day 7 or 16, mice were euthanized and the skin surrounding each matrigel plug was excised, then pinned flat onto a styrofoam board and fixed in 10% neutral buffered formalin solution (Sigma-Aldrich, Diegem, Belgium) overnight. Matrigel plugs were removed from the murine skin, dehydrated in a series of graded alcohol, and embedded in paraffin. Paraffin-embedded plugs were then cut into 5 μm sections for histological analysis. After de-paraffinization in xylene and rehydration in a series of degraded alcohol, sections were subjected to heat-induced antigen-retrieval in 0.1 M citrate buffer, pH 6.0, with or without 0.05% Tween-20. For immunohistochemical staining, sections were blocked with 3% H2O2 (Sigma-Aldrich, Diegem, Belgium), incubated with a biotinylated antibody against the human endothelial cell marker Ulex europaeus Agglutinin 1 (UEA1) (Vector labs, Brussels, Belgium), followed by a horseradish peroxidase-conjugated streptavidin secondary antibody (GE Healthcare, Diegem, Belgium), then in a DAB solution (Vector labs, Brussels, Belgium). Sections were counterstained with hematoxylin and mounted with VectaMount permanent mounting medium (Vector labs, Brussels, Belgium). […] The average vessel area was quantitated by making snapshots at a 20× objective of at least 5 areas of each matrigel plug and measuring the area of a least 6 UEA+ vessels each using ImageJ software. […]

[3] = tested on: TIE2 mutant HUVECs; assay: Mutant TIE2-transfected HUVEC cell morphology assay; assay type: cell-based, human; conditions: 100 nM, imaged at 24 and 48 hours, TIE2 mutant HUVECs compared with WT TIE2 HUVECs
Protocol: as §1
HUVEC cells (5×10^5 cells/plate) stably expressing WT or TIE2 mutants R849W, L914F, R1099*, Y897C/R915C, Y897F/F915L, or T1105N/T1106P were added to a 10 cm plate coated with attachment factor solution (Tebu-Bio, Boechout, Belgium) in 6 mL of endothelial cell growth media (Tebu-Bio, Boechout, Belgium) containing 10% fetal calf serum (Sigma-Aldrich, Diegem, Belgium). Cells were then incubated for 2 days at 37 degrees Celsius, 5% CO2, and 95% humidity. Next, test compound or DMSO was added to the wells (0.068% final DMSO concentration). The plates were then further incubated for 48 hours at 37 degrees Celsius, 5% CO2, and 95% humidity. The cells were imaged by microscopy at 24 hours and 48 hours after addition of compound.

[4] = tested on: HUVEC cells expressing mutant TIE2-L914F (VM lesions in matrigel plugs); assay: Venous malformation mouse model, diet from day of injection (Day 0); assay type: in vivo, athymic nude male mice
Protocol: as §3
To evaluate the effect of the compound on vascular malformation (VM) lesion development in vivo, HUVEC cells (2.5×10^6) expressing mutant TIE2-L914F were cultured, detached, then resuspended in 200 μL matrigel (Corning). The mixture was injected subcutaneously into the dorsal back of athymic nude male mice, aged 5-7 weeks (Charles River). […] At post-implant day 7 or 16, mice were euthanized and the skin surrounding each matrigel plug was excised, then pinned flat onto a styrofoam board and fixed in 10% neutral buffered formalin solution (Sigma-Aldrich, Diegem, Belgium) overnight. Matrigel plugs were removed from the murine skin, dehydrated in a series of graded alcohol, and embedded in paraffin. Paraffin-embedded plugs were then cut into 5 μm sections for histological analysis. After de-paraffinization in xylene and rehydration in a series of degraded alcohol, sections were subjected to heat-induced antigen-retrieval in 0.1 M citrate buffer, pH 6.0, with or without 0.05% Tween-20. For immunohistochemical staining, sections were blocked with 3% H2O2 (Sigma-Aldrich, Diegem, Belgium), incubated with a biotinylated antibody against the human endothelial cell marker Ulex europaeus Agglutinin 1 (UEA1) (Vector labs, Brussels, Belgium), followed by a horseradish peroxidase-conjugated streptavidin secondary antibody (GE Healthcare, Diegem, Belgium), then in a DAB solution (Vector labs, Brussels, Belgium). Sections were counterstained with hematoxylin and mounted with VectaMount permanent mounting medium (Vector labs, Brussels, Belgium). For immunofluorescent staining (IF), sections were incubated with primary antibodies that recognize UEA1, the smooth muscle layer marker SMA (clone 1A4, Sigma-Aldrich, Diegem, Belgium), phosphorylated-TIE2(Y772) (Bioke, Leiden, Netherlands), or total TIE2 (Santa Cruz, Heidelberg, Germany). Secondary antibodies used were conjugated to Alexa488-, Alexa649-, or CY5-fluorophores. Slides were mounted with VectaShield Hardset mounting medium with DAPI (Vector labs, Brussels, Belgium). Images were acquired via a Panoramic 250 Flash III digital slide scanner (3D Histech, Hungary) and visualized with Caseviewer version 2.2 software (3D Histech, Hungary). The average vessel area was quantitated by making snapshots at a 20× objective of at least 5 areas of each matrigel plug and measuring the area of a least 6 UEA+ vessels each using ImageJ software.
To evaluate the overall vascular morphology within the explants, wholemount IF of vessels within matrigel plugs was done. After excising skins with matrigel plugs attached and flat-fixing them overnight in 10% neutral buffered formalin, an approximately 100-200 μm piece of the plug was sliced off and washed in 1×PBS. The pieces were blocked overnight in 1% BSA (v/v) (Gibco) and 0.3% Triton-X100 (Sigma-Aldrich, Diegem, Belgium) in 1×PBS, then incubated in UEA1 for at least 72 hours, followed by in CY5-streptavidin secondary antibody (Vector labs, Brussels, Belgium). Pieces were then post-fixed in 10% NBF for 10 min, then mounted with Fluormount G (Thermo Fischer Scientific, Merelbeke, Belgium). Z-stack images were acquired with a Zeiss cell observer spinning disk confocal microscope (Zeiss, Germany); 3-D projections of Z-stacks were generated by the AriVis4D software. […] Non-vascularized UEA+ cells were also present but the expression is reduced. Also conducted were comparisons of treated and untreated VM lesions at day 16 with wild type and L914F TIE2 mutants in which treatment began at day 0 (FIG. 18A-D) or day 7 (FIG. 19A-C).

[5] = tested on: TIE2 mutant HUVECs; assay: Mutant TIE2-transfected gene expression assay (quantitative PCR); assay type: cell-based, human; conditions: 100 nM, 48 hours, normalized to GAPDH
Protocol: as §1
HUVEC cells (5×10^5 cells/plate) stably expressing WT or TIE2 mutants R849W, L914F, R1099*, Y897C/R915C, Y897F/F915L, or T1105N/T1106P were added to a 10 cm plate coated with attachment factor solution (Tebu-Bio, Boechout, Belgium) in endothelial cell growth media (Tebu-Bio, Boechout, Belgium) containing 10% fetal calf serum (Sigma-Aldrich, Diegem, Belgium). Cells were then incubated for 2 days at 37 degrees Celsius, 5% CO2, and 95% humidity. Next, test compound or DMSO was added to the wells (0.068% final DMSO concentration). The plates were then further incubated for 48 hours at 37 degrees Celsius, 5% CO2, and 95% humidity. RNA was extracted by collecting the cells into TriPure isolation reagent (Sigma-Aldrich, Diegem, Belgium). Subsequently, cDNA from extracted RNA was synthesized using RevertAid H Minus first strand cDNA synthesis kit (Thermo Fischer Scientific, Merelbeke, Belgium). Quantitative PCR was carried out using LightCycler480 SYBRGreen master mix and a LightCycler 480 II instrument (Roche, Switzerland). cDNA for ANGPT2, PDGFB, ADAMTS1, ADAMTS9, PLAT, and PLAU were quantified and normalized to the expression from the housekeeping gene GAPDH.

[6] = tested on: TIE2 mutant expressing HUVECs; assay: Mutant TIE2-transfected fibronectin assay (extracellular matrix); assay type: cell-based, human; conditions: 100 nM, 48 hours, TIE2 mutant HUVECs versus WT TIE2
Protocol: as §1
HUVEC cells (3×10^5 cells/well) stably expressing WT or TIE2 mutants R849W, L914F, R1099*, Y897C/R915C, Y897F/F915L, or T1105N/T1106P were added to a 6-well plate coated with attachment factor solution (Tebu-Bio, Boechout, Belgium) in endothelial cell growth media (Tebu-Bio, Boechout, Belgium) containing 10% fetal calf serum (Sigma-Aldrich, Diegem, Belgium). Cells were then incubated for 24 hours at 37 degrees Celsius, 5% CO2, and 95% humidity. Next, test compound or DMSO was added to the wells (0.068% final DMSO concentration). The plates were then further incubated for 48 hours at 37 degrees Celsius, 5% CO2, and 95% humidity. Cells were switched into 2% FBS for overnight. Intracellular fibronectin levels were lower in transfectants, thus cellular lysates were collected and used as controls. […]

[7] = tested on: WT TIE2 and TIE2 mutants; assay: Mutant TIE2-transfected HUVEC Western blot assay: TIE2 phosphorylation; assay type: cell-based, human; conditions: 100 nM, 4 hours, HUVECs with WT TIE2 and TIE2 mutants, presence or absence of ANGPT1 stimulation
Protocol: as §1, §2

[8] = tested on: AKT; assay: Mutant TIE2-transfected HUVEC Western blot assay: AKT phosphorylation downstream of TIE2; assay type: cell-based, human; conditions: 100 nM, 4 hours, HUVECs with WT TIE2 and TIE2 mutants, presence or absence of ANGPT1 stimulation
Protocol: as §1, §2

[9] = diet equivalent to 10 mg/kg from Day 0, post-implant day 7
[10] = diet equivalent to 10 mg/kg from Day 0, post-implant day 7, versus control diet
[11] = diet equivalent to 10 mg/kg from Day 0, post-implant day 16

SMILES: CNC(=O)c1cc(Oc2ccc(NC(=O)Nc3cc(C(C)(C)C)nn3-c3ccc4ncccc4c3)c(F)c2)ccn1 [compound of Formula I, rebastinib]
- inhibition of STAT1 phosphorylation [1]: complete inhibition
- severity of established VMs ([2]; diet from post-implant day 7): ameliorated the severity of VMs
- average vascular area of vessels ([2]; diet from post-implant day 7, explants day 16): moderately reduced
- smooth muscle cell layer coverage ([2]; diet from post-implant day 7, explants day 16, versus control diet): improved smooth muscle cell layer coverage
- cellular morphology [3]: restored cellular morphology
- gross appearance of blood-filled vascular channels (macroscopic view of lesions) ([4]; diet equivalent to 10 mg/kg from Day 0, compared to untreated mutants): more controlled and less severe
- overall vascular morphology (wholemount IF) [4, 9]: more normal, tubular vessels were seen
- smooth muscle cell/pericyte coverage (SMA staining) [4, 9]: displayed a few SMA positive cells
- average area of vessels within the plugs [4, 10]: drastically less
- expression of pTIE2 in ECs [4, 10]: weaker
- overall vascular morphology (wholemount IF) [4, 11]: largely normalized
- smooth muscle cell/pericyte coverage (SMA+ cells) [4, 11]: surrounded more consistently by SMA+ cells
- vessel size in lesions ([4]; diet equivalent to 10 mg/kg from Day 0, post-implant day 16, versus control diet and untreated): much smaller vessels
- pTIE2 in ECs ([4]; diet equivalent to 10 mg/kg from Day 0, post-implant day 16, versus untreated): drastically reduced
- VM development ([4]; mice fed compound-infused food): reduced VM development
- expression of ADAMTS1 RNA [5]: decreased expression
- expression of ADAMTS9 RNA [5]: decreased expression
- expression of ANGPT2 RNA [5]: increased expression
- expression of PDGFB RNA [5]: increased expression
- expression of PLAT RNA [5]: decreased expression
- expression of PLAU RNA [5]: decreased expression
- fibronectin levels in the extracellular matrix [6]: restored fibronectin levels
- inhibition of TIE2 phosphorylation [7]: complete inhibition
- inhibition of AKT Ser473 phosphorylation [8]: complete inhibition
- inhibition of AKT Thr308 phosphorylation [8]: complete inhibition
